From patent US6251940A, “Inflammatory cell inhibitors” (British Biotech Pharmaceuticals Ltd., priority 1998, dated 2001)

What was measured:
[1] = test system: Human PBMCs; assay: Inhibition of anti-CD3-induced T lymphocyte proliferation of PBMCs; type: cell-based; conditions: 48 hrs; for Inhibition of cell proliferation (in words), anti-CD3: range of dilutions
Procedure: Inhibition of Anti-CD3-induced T Lymphocyte Activation and Proliferation
(§1) The compounds of examples 1, 6, 19, 39, 40 and 43 above were tested for its effects on anti-CD3-driven proliferation of peripheral blood mononuclear cells (PBMCs) in vitro. The PBMCs were activated with anti-CD3 antibody which directly activates T lymphocytes via the T cell receptor CD3 component, although other cells do contribute to T cell proliferation by co-stimulation and growth factor production. Human PBMCs (5×10^4cells/well), purified from whole blood by centrifugation through ficoll/hypaque, were incubated in monoclonal anti-CD3 antibody-coated wells (5 μg/ml) and compound 1 at a range of dilutions in a 96 well microtitre plate for 48 hrs at 37° C. in a 5% CO2 incubator. DMSO was run in each assay as a vehicle control. 0.5 μCuries of tritiated thymidine in 40 μl (Amersham) were added to each well during the final 18 hrs. The cells were then harvested on glass fibre pads using a Tomtech cell harvester and, after adding scintillant to the pad (Meltilex) they were placed in a Wallac MicroBeta plate counter. The results obtained are in counts per minute and reflect the level of tritiated thymidine incorporation into the cells and therefore the level of cell proliferation. The percentage proliferation in test wells compared to control wells was calculated. The results were plotted and the IC50 value calculated.

[2] = test system: Human PBMCs; assay: Inhibition of mitogen (PWM)-induced lymphocyte proliferation of PBMCs; type: cell-based; conditions: PBMC, PWM 2.5 μg/ml, 48 hrs, tritiated thymidine, read-out: IC50, PBMCs stimulated with PWM
Procedure: Inhibition of Mitogen-induced Lymphocyte Proliferation
The compounds of examples 1, 2, 3, 6, 19, 39, 40 and 43 above were tested for their effects on the proliferation of peripheral blood mononuclear cells (PBMCs) in vitro. The PBMCs were activated with Pokeweed mitogen (PWM), a potent activator of lymphocytes and monocytes which leads to B and T lymphocyte proliferation.
Human PBMCs (2×10^4 cells/well), purified from whole blood by centrifugation through ficoll/hypaque, were incubated with PWM (2.5 μg/ml) and compounds 1 and 2 at a range of dilutions in 96 well microtitre plates for 48 hrs at 37° C. in a 5% CO2 incubator. DMSO was run in each assay as a vehicle control. 0.5 μCuries of tritiated thymidine in 40 μl (Amersham) were added to each well during the final 18 hrs. The cells were then harvested on glass fibre pads using a Tomtech cell harvester and, after adding scintillant to the pad (Meltilex) they were placed in a Wallac MicroBeta plate counter. The results obtained are in counts per minute and reflect the level of tritiated thymidine incorporation into the cells and therefore the level of cell proliferation. The percentage proliferation in test wells compared to control wells was calculated and the inhibition curves plotted. The IC50 values were calculated from the inhibition curves.

[3] = test system: Human PBMCs; assay: Inhibition of antigen (PPD)-induced T lymphocyte proliferation of PBMCs; type: cell-based; conditions: PBMC, PPD 1 μg/ml, 72 hrs, tritiated thymidine, read-out: IC50, PBMCs stimulated with PPD
[4] = test system: CD69; assay: CD69 expression on T cells activated by anti-CD3 (FACS); type: cell-based, Human; conditions: 4 hrs treatment; untreated cells 68%
Procedure: as §1, with “The results obtained are in counts per minute and reflect the level of tritiated thymidine incorporation into the cells and therefore the level of cell proliferation.” left out
CD69 is a membrane marker of T cell activation. The level of CD69 expression on the membranes of T cells activated by anti-CD3 was therefore measured by fluorescence activated cell (FACS) flow cytometry.

[5] = test system: TNF; assay: Inhibition of production of TNF, PWM-activated PBMCs (ELISA); type: cell-based, Human; conditions: 48 hrs
Procedure: (§2) Inhibition of Production of TNF
(§3) The compound of example 3 above was tested for its effect on the production of the pro-inflammatory cytokine TNF. TNF is released from various cells (monocytes and B lymphocytes) following activation by mitogen or antigen. The production of this inflammatory mediator in the supernatant of activated PBMCs was measured by ELISA.
(§4) Human PBMCs (2-5×10^6 cells/well), purified from whole blood by centrifugation through ficoll/hypaque, were incubated with either PWM (2.5 μg/ml) or PPD (1 μg/ml) and compound example 3 at 10 μM in a 24 well microtitre plates for 48 hrs at 37° C. in a CO2 incubator. DMSO was run in each assay as a vehicle control. Supernatant was removed after 48 hrs and microfuged at 10,000 rpm for 2 minutes. Supematant was removed, aliquotted and stored at -70° C. until tested.

[6] = test system: TNF; assay: Inhibition of production of TNF, PPD-activated PBMCs (ELISA); type: cell-based, Human; conditions: 48 hrs
Procedure: as §2, §3, §4

[7] = test system: TNF alpha; assay: Inhibition of TNF production in PWM-activated whole blood; type: cell-based; conditions: 10 μM, PWM-activated whole blood diluted 1/5, 24 hours; for TNF alpha: vehicle 1031 pg/ml
Procedure: as §4
In a modification of the above procedure, the compounds of Examples 19 and 40 were tested at 10 μM for inhibition of TNF production in PWM-activated whole blood diluted 1/5 in RPMI containing 1% nutridoma. The supernatants were tested after 24 hours of culture.

[8] = test system: Experimental Autoimmune Neuritis; assay: Experimental Autoimmune Neuritis animal model; type: in vivo, Male Lewis rats; conditions: 100 mg.kg^-1 ip uid, day 1 to 14; day 15 post-inoculation; groups of 9

| Compound | Inhibition of cell proliferation (in words), anti-CD3 [1] | IC50 [2] [nM] | IC50 [3] [nM] | other results |
| --- | --- | --- | --- | --- |
| C=CC[C@H](C(=O)NO)[C@@H](CC(C)C)C(=O)N[C@@H](Cc1ccccc1)C(=O)OC [Example 1, 2S-(3S-Hydroxycarbamoyl-2R-isobutyl-hex-5-enoylamino)-3-phenylpropionic acid methyl ester] | inhibited cell proliferation in a dose related fashion | 4700 | 2000 | IC50 ([1]; Homo sapiens, PBMC, anti-CD3 antibody-coated wells 5 μg/ml, tritiated thymidine, read-out: IC50, PBMCs stimulated with ANTI-CD3): 2100 nM; expression of CD69 (% of T cells) [4]: 48% |
| C=CC[C@H](C(=O)NO)[C@@H](CC(C)C)C(=O)N[C@@H](Cc1ccccc1)C(=O)OCC [Example 2, 2S-(3S-Hydroxycarbamoyl-2R-isobutyl-hex-5-enoylamino)-3-phenylpropionic acid ethyl ester] | – | 4800 | – | – |
| C=CC[C@H](C(=O)NO)[C@@H](CC(C)C)C(=O)N[C@@H](Cc1ccccc1)C(=O)OC(C)C [Example 3, 2S-(3S-Hydroxycarbamoyl-2R-isobutyl-hex-5-enoylamino)-3-phenylpropionic acid isopropyl ester] | – | 2400 | 1800 | TNF, ACTIVATED PWM ([5]; 10 μM, dmso 1390 pg/ml): 495 pg/mL; inhibition at 10 µM ([5]; Homo sapiens, PBMC, versus dmso, read-out: reduction of the level of TNF production, PWM system): 64%; TNF, ACTIVATED PPD ([6]; 10 μM, dmso 50 pg/ml): 15 pg/mL; inhibition at 10 µM ([6]; Homo sapiens, PBMC, versus dmso, read-out: reduction of the level of TNF production, PPD system): 70% |
| CC(C)C[C@H](CC(=O)NO)C(=O)N[C@@H](Cc1ccccc1)C(=O)OC(C)C [Example 6, 2S-(2R-Hydroxycarbamoylmethyl-4-methyl-pentanoylamino)-3-phenyl-propionic acid isopropyl ester] | inhibited cell proliferation in a dose related fashion | – | – | – |
| C=CC[C@H](C(=O)NO)[C@@H](CC(C)C)C(=O)N[C@@H](Cc1ccccc1)C(=O)OC1CCCC1 [Example 19, 2S-(3S-Hydroxycarbamoyl-2R-isobutyl-hex-5-enoylamino)-3-phenylpropionic acid cyclopentyl ester] | inhibited cell proliferation in a dose related fashion | – | 1100 | TNF production (in words) [7]: reduced the level of TNF production; TNF alpha [7]: 489 pg/mL; reduction in mean clinical score compared to vehicle group [8]: 93% |
| C=CC[C@H](C(=O)NO)[C@@H](CC(C)C)C(=O)N[C@@H](COC(C)(C)C)C(=O)OC1CCCC1 [Example 39, 3-tert-Butoxy-2S-(3S-hydroxycarbamoyl-2R-isobutyl-hex-5-enoylamino)-propionic acid cyclopentyl ester] | inhibited cell proliferation in a dose related fashion | – | – | – |
| C=CC[C@H](C(=O)NO)[C@@H](CC(C)C)C(=O)N[C@H](C(=O)OC1CCCC1)c1ccccc1 [Example 40, 2S-(3S-Hydroxycarbamoyl-2R-isobutyl-hex-5-enoylamino)-2-phenylethanoic acid cyclopentyl ester] | inhibited cell proliferation in a dose related fashion | – | – | TNF production (in words) [7]: reduced the level of TNF production; TNF alpha [7]: 600 pg/mL |
| CC(C)C[C@@H](C(=O)NC(C(=O)OC1CCCC1)c1ccccc1)[C@H](O)C(=O)NO (stereo partly drawn) [Example 43, 2-[2R-(S-Hydroxy-hydroxycarbamoyl-methyl)-4-methyl-pentanoylamine]-2-phenyl-ethanoic acid cyclopentyl ester] | inhibited cell proliferation in a dose related fashion | – | – | – |
